We go through four sequences from patent publication US20070128217A1 (priority 2003, published 2007).

In assay [1] the test system is control sera (pooled serum of ten healthy LUMC hospital workers; commercial negative donor pooled serum from the Dutch bloodbank). Format: binding, human. Further details: Binding of Control serum LUMC to linear peptides / Binding of Control serum Blood-bank to linear peptides / Binding of Control serum LUMC to looped peptides / Binding of Control Serum Blood-Bank to Looped peptides / Binding of Control serum LUMC to linear peptides of the protein M of SARS-CoV Urbani / Binding of Control serum Blood-bank to linear peptides of the protein M of SARS-CoV Urbani / Binding of Control serum LUMC to looped peptides of the protein M of SARS-CoV Urbani / Binding of Control Serum Blood-Bank to Looped peptides of the protein M of SARS-CoV Urbani: unit not given here.

The subject of assay [2] is rabbit serum obtained by immunizing a rabbit with the SARS-CoV strain Frankfurt 1. In kind it is binding. Further details: Binding of a rabbit serum to linear peptides / Binding of a rabbit serum to looped peptides / Rabbit serum linear peptides / Rabbit serum looped peptides / Binding of a rabbit serum to linear peptides of protein N of SARS-CoV Urbani (Rabbit serum linear peptides) / Binding of a rabbit serum to looped/cyclic peptides of protein N of SARS-CoV Urbani (Rabbit serum looped peptides): unit not given here.

Assay [3] relates to antibodies in sera from SARS patients (sera 1a, 1b, 2, 6, 37, 62, London, SARS-yellow, SARS-green). In kind it is binding, human. More on the design: Binding of serum 6 to linear peptides of protein X1 of SARS-CoV Urbani / Binding of serum 37 to linear peptides of protein X1 of SARS-CoV Urbani / Binding of serum 6 to looped/cyclic peptide (PEPSCAN-ELISA) / Binding of serum 37 to looped/cyclic peptide (PEPSCAN-ELISA) / Binding of serum 37 to looped/cyclic peptides of protein X1 of SARS-CoV Urbani / Binding of serum 6 to linear peptides of protein X2 / Binding of serum 37 to linear peptides of protein X2 / Binding of serum 37 to looped/cyclic peptides of protein X2 of SARS-CoV Urbani / Binding of serum 6 to linear peptides of protein M of SARS-CoV Urbani / Binding of serum 37 to linear peptides of protein M of SARS-CoV Urbani / Binding of serum 6 to looped/cyclic peptides of protein M of SARS-CoV Urbani / Binding of serum 37 to looped/cyclic peptides of protein M of SARS-CoV Urbani / Binding of serum 6 to linear peptides of protein X3 of SARS-CoV Urbani / Binding of serum 37 to linear peptides of protein X3 of SARS-CoV Urbani / Binding of serum 37 to looped/cyclic peptides of protein X3 of SARS-CoV Urbani / Binding of serum 6 to linear peptides of protein X4 of SARS-CoV Urbani / Binding of serum 37 to linear peptides of protein X4 of SARS-CoV Urbani / Binding of serum 37 to looped/cyclic peptides of protein X4 of SARS-CoV Urbani / Binding of serum 6 to linear peptides of protein X5 of SARS-CoV Urbani / Binding of serum 37 to linear peptides of protein X5 of SARS-CoV Urbani / Binding of serum 37 to looped/cyclic peptides of protein X5 of SARS-CoV Urbani / Binding of serum 6 to linear peptides of protein N of SARS-CoV Urbani / Binding of serum 37 to linear peptides of protein N of SARS-CoV Urbani / Binding of serum 6 to linear peptide (PEPSCAN-ELISA) / Binding of serum 1a to looped/cyclic peptides of protein N of SARS-CoV Urbani / Binding of serum 1b to looped/cyclic peptides of protein N of SARS-CoV Urbani / Binding of serum 2 to looped/cyclic peptides of protein N of SARS-CoV Urbani / Binding of serum 6 to looped/cyclic peptides of protein N of SARS-CoV Urbani / Binding of serum 37 to looped/cyclic peptides of protein N of SARS-CoV Urbani / Binding of serum 62 to looped/cyclic peptides of protein N of SARS-CoV Urbani / Binding of serum London to looped/cyclic peptides of protein N of SARS-CoV Urbani / Binding of serum SARS-green to looped/cyclic peptides of protein N of SARS-CoV Urbani: unit not given here.

For the sequence YKGFQFICNLLLLFV, in assay [1], the “Binding of Control Serum Blood-Bank to Looped peptides” value is listed as 0.4, the “Binding of Control serum Blood-bank to linear peptides” value stood at 1.0, the “Binding of Control serum LUMC to linear peptides” value came to 0.8 and the “Binding of Control serum LUMC to looped peptides” value stood at 0.4. In assay [2], the “Binding of a rabbit serum to linear peptides” value is on record as 0.3 and the “Binding of a rabbit serum to looped peptides” value turned out to be 0.0. In assay [3], the “Binding of serum 1a to linear peptides of protein X1 of SARS-CoV Urbani” value was 0.9, the “Binding of serum 1a to looped/cyclic peptide (PEPSCAN-ELISA)” value is given as 0.3, the “Binding of serum 1b to linear peptides of protein X1 of SARS-CoV Urbani” value was determined as 0.8 and the “Binding of serum 1b to looped/cyclic peptide (PEPSCAN-ELISA)” value was 0.0. In assay [3], the “Binding of serum 2 to linear peptides of protein X1 of SARS-CoV Urbani” value was found to be 0.9, the “Binding of serum 2 to looped/cyclic peptide (PEPSCAN-ELISA)” value is 0.0, the “Binding of serum 6 to linear peptides of protein X1 of SARS-CoV Urbani” value came to 0.9 and the “Binding of serum 6 to looped/cyclic peptide (PEPSCAN-ELISA)” value was 0.3. In assay [3], the “Binding of serum 37 to linear peptides of protein X1 of SARS-CoV Urbani” value is 0.7, the “Binding of serum 37 to looped/cyclic peptide (PEPSCAN-ELISA)” value is listed as 0.2, the “Binding of serum 62 to linear peptides of protein X1 of SARS-CoV Urbani” value was 1.0 and the “Binding of serum 62 to looped/cyclic peptide (PEPSCAN-ELISA)” value was determined as 0.3. In addition, in assay [3], the “Binding of serum London to linear peptides of protein X1 of SARS-CoV Urbani” value came to 0.8, the “Binding of serum London to looped/cyclic peptide (PEPSCAN-ELISA)” value came out at 0.2, the “Binding of serum SARS-green to linear peptides of protein X1 of SARS-CoV Urbani” value is reported as 0.4 and the “Binding of serum SARS-green to looped/cyclic peptide (PEPSCAN-ELISA)” value amounted to 0.3. Besides, in assay [3], the “Binding of serum SARS-yellow to linear peptides of protein X1 of SARS-CoV Urbani” value amounted to 0.6 and the “Binding of serum SARS-yellow to looped/cyclic peptide (PEPSCAN-ELISA)” value was 0.0.

Regarding YLYALIYFLQCINAC, in assay [1], the “Binding of Control Serum Blood-Bank to Looped peptides” value is 0.5, the “Binding of Control serum Blood-bank to linear peptides” value is reported as 0.5, the “Binding of Control serum LUMC to linear peptides” value is on record as 0.6 and the “Binding of Control serum LUMC to looped peptides” value was found to be 0.5. Moreover, in assay [2], the “Binding of a rabbit serum to linear peptides” value is on record as 0.1 and the “Binding of a rabbit serum to looped peptides” value is 0.4. Besides, in assay [3], the “Binding of serum 1a to linear peptides of protein X1 of SARS-CoV Urbani” value was determined as 0.7, the “Binding of serum 1a to looped/cyclic peptide (PEPSCAN-ELISA)” value is recorded as 0.4, the “Binding of serum 1b to linear peptides of protein X1 of SARS-CoV Urbani” value was found to be 0.5 and the “Binding of serum 1b to looped/cyclic peptide (PEPSCAN-ELISA)” value is reported as 0.2. In addition, in assay [3], the “Binding of serum 2 to linear peptides of protein X1 of SARS-CoV Urbani” value was 0.5, the “Binding of serum 2 to looped/cyclic peptide (PEPSCAN-ELISA)” value is given as 0.3, the “Binding of serum 6 to linear peptides of protein X1 of SARS-CoV Urbani” value turned out to be 0.5 and the “Binding of serum 6 to looped/cyclic peptide (PEPSCAN-ELISA)” value is 0.2. In assay [3], the “Binding of serum 37 to linear peptides of protein X1 of SARS-CoV Urbani” value is listed as 0.6, the “Binding of serum 37 to looped/cyclic peptide (PEPSCAN-ELISA)” value is reported as 0.4, the “Binding of serum 62 to linear peptides of protein X1 of SARS-CoV Urbani” value was 0.5 and the “Binding of serum 62 to looped/cyclic peptide (PEPSCAN-ELISA)” value is 0.4. Also, in assay [3], the “Binding of serum London to linear peptides of protein X1 of SARS-CoV Urbani” value was 0.4, the “Binding of serum London to looped/cyclic peptide (PEPSCAN-ELISA)” value is given as 0.2, the “Binding of serum SARS-green to linear peptides of protein X1 of SARS-CoV Urbani” value is recorded as 0.2 and the “Binding of serum SARS-green to looped/cyclic peptide (PEPSCAN-ELISA)” value worked out at 0.1. Further, in assay [3], the “Binding of serum SARS-yellow to linear peptides of protein X1 of SARS-CoV Urbani” value is 0.3 and the “Binding of serum SARS-yellow to looped/cyclic peptide (PEPSCAN-ELISA)” value is listed as 0.2.

For YMAISPKFTTSLSLH, in assay [1], the “Binding of Control Serum Blood-Bank to Looped peptides” value amounted to 0.7, the “Binding of Control serum Blood-bank to linear peptides” value was determined as 0.7, the “Binding of Control serum LUMC to linear peptides” value came to 0.4 and the “Binding of Control serum LUMC to looped peptides” value came to 0.7. In assay [2], the “Binding of a rabbit serum to linear peptides” value worked out at 0.3 and the “Binding of a rabbit serum to looped peptides” value is 0.5. Moreover, in assay [3], the “Binding of serum 1a to linear peptides of protein X2” value amounted to 0.7, the “Binding of serum 1a to looped/cyclic peptides of protein X2 of SARS-CoV Urbani” value is on record as 0.6, the “Binding of serum 1b to linear peptides of protein X2” value worked out at 0.6 and the “Binding of serum 1b to looped/cyclic peptides of protein X2 of SARS-CoV Urbani” value is recorded as 0.6. Moreover, in assay [3], the “Binding of serum 2 to linear peptides of protein X2” value came to 0.4, the “Binding of serum 2 to looped/cyclic peptides of protein X2 of SARS-CoV Urbani” value is recorded as 0.4, the “Binding of serum 6 to linear peptides of protein X2” value was found to be 0.4 and the “Binding of serum 6 to looped/cyclic peptides of protein X2 of SARS-CoV Urbani” value came to 0.5. Besides, in assay [3], the “Binding of serum 37 to linear peptides of protein X2” value is reported as 0.6, the “Binding of serum 37 to looped/cyclic peptides of protein X2 of SARS-CoV Urbani” value turned out to be 0.5, the “Binding of serum 62 to linear peptides of protein X2” value came out at 0.6 and the “Binding of serum 62 to looped/cyclic peptides of protein X2 of SARS-CoV Urbani” value was 0.6. Moreover, in assay [3], the “Binding of serum London to linear peptides of protein X2” value is listed as 0.4, the “Binding of serum London to looped/cyclic peptides of protein X2 of SARS-CoV Urbani” value stood at 0.4, the “Binding of serum SARS-green to linear peptides of protein X2” value came to 0.5 and the “Binding of serum SARS-green to looped/cyclic peptides of protein X2 of SARS-CoV Urbani” value was 0.4. In addition, in assay [3], the “Binding of serum SARS-yellow to linear peptides of protein X2” value is on record as 0.6 and the “Binding of serum SARS-yellow to looped/cyclic peptides of protein X2 of SARS-CoV Urbani” value is listed as 0.4.

Regarding YNRYRIGNYKLNTDH, in assay [1], the “Binding of Control Serum Blood-Bank to Looped peptides of the protein M of SARS-CoV Urbani” value turned out to be 0.8, the “Binding of Control serum Blood-bank to linear peptides of the protein M of SARS-CoV Urbani” value amounted to 0.5, the “Binding of Control serum LUMC to linear peptides of the protein M of SARS-CoV Urbani” value stood at 0.6 and the “Binding of Control serum LUMC to looped peptides of the protein M of SARS-CoV Urbani” value worked out at 0.9. Further, in assay [2], the “Rabbit serum linear peptides” value is listed as 0.3 and the “Rabbit serum looped peptides” value is 0.5. In assay [3], the “Binding of serum 1a to linear peptides of protein M of SARS-CoV Urbani” value stood at 0.7, the “Binding of serum 1a to looped/cyclic peptides of protein M of SARS-CoV Urbani” value came out at 0.8, the “Binding of serum 1b to linear peptides of protein M of SARS-CoV Urbani” value came to 0.6 and the “Binding of serum 1b to looped/cyclic peptides of protein M of SARS-CoV Urbani” value came to 0.7. For the same sequence, in assay [3], the “Binding of serum 2 to linear peptides of protein M of SARS-CoV Urbani” value was determined as 0.4, the “Binding of serum 2 to looped/cyclic peptides of protein M of SARS-CoV Urbani” value is reported as 0.7, the “Binding of serum 6 to linear peptides of protein M of SARS-CoV Urbani” value came out at 0.5 and the “Binding of serum 6 to looped/cyclic peptides of protein M of SARS-CoV Urbani” value is given as 1.1. Also, in assay [3], the “Binding of serum 37 to linear peptides of protein M of SARS-CoV Urbani” value is recorded as 0.5, the “Binding of serum 37 to looped/cyclic peptides of protein M of SARS-CoV Urbani” value stood at 0.5, the “Binding of serum 62 to linear peptides of protein M of SARS-CoV Urbani” value is recorded as 0.4 and the “Binding of serum 62 to looped/cyclic peptides of protein M of SARS-CoV Urbani” value is reported as 0.6. In assay [3], the “Binding of serum London to linear peptides of protein M of SARS-CoV Urbani” value came out at 0.5, the “Binding of serum London to looped/cyclic peptides of protein M of SARS-CoV Urbani” value is reported as 0.6, the “Binding of serum SARS-green to linear peptides of protein M of SARS-CoV Urbani” value is 0.4 and the “Binding of serum SARS-green to looped/cyclic peptides of protein M of SARS-CoV Urbani” value is given as 0.3. Further, in assay [3], the “Binding of serum SARS-yellow to linear peptides of protein M of SARS-CoV Urbani” value is 0.1 and the “Binding of serum SARS-yellow to looped/cyclic peptides of protein M of SARS-CoV Urbani” value stood at 0.7.
